Two compounds from patent publication US10696686B2, “Herbicidally active (alkynyl-phenyl)-substituted cyclic dione compounds and derivatives thereof” (Syngenta Limited, priority 2013, dated 2020) can be followed below.

SMILES strings stand for the structures. Like-named read-outs stand apart in the source and are kept apart here.

What all share (assay type): in vivo
Test [1] deals with Echinochloa crus-galli (ECHCG). Kind of test: Biological Example 1A glasshouse assay, post-emergence application. As to conditions: 312 h, read-out: Percentage phytotoxicity ECHCG. How it is done: Seeds of a variety of test plant species were sown in standard soil ** in pots. After cultivation for one day (pre-emergence) or after 8 days cultivation (post-emergence) under controlled conditions in a glasshouse (at 24/16° C., day/night; 14 hours light; 65% humidity), the plants were sprayed with an aqueous spray solution derived from the formulation of the technical active ingredient (the test herbicide) in acetone/water (50:50) solution containing 0.5% Tween 20 (polyoxyethylene sorbitan monolaurate, CAS Reg. No. 9005-64-5). The test plants were then grown on under controlled conditions in a glasshouse (at 24/16° C., day/night; 14 hours light; 65% humidity) and watered twice daily. 13 Days after application of the test herbicide, for pre- and post-emergence, the test was evaluated visually for percentage phytotoxicity to each plant (where 100%=total damage to plant; 0%=no damage to plant). Generally, each test herbicide is only tested on 1 plant per plant species for each application rate tested and for each application timing. ** The “standard soil” in Biological Example 1 is usually a “sand” or “sandy loam” type of soil.
Dicotyledonous weeds: ABUTH=Abutilon theophrasti; AMARE=Amaranthus retroflexus. Grassy monocotyledonous weeds: SETFA=Setaria faberi; ALOMY=Alopecurus myosuroides; ECHCG=Echinochloa crus-galli; ZEAMX=Zea mays (corn, maize, e.g. volunteer corn). For Compound A16, the grassy monocotyledonous weed LOLPE (Lolium perenne) was used in the test insterad of ALOMY.

In test [2] the test system is Eleusine indica (ELEIN). Kind of test: Biological Example 3 glasshouse assay using various adjuvant systems, post-emergence foliar spray. The settings on record: 8 g/ha. The method, then: (§1) Post-emergence foliar spray application, 200 L/ha, usually one or two replicates for the weeds (depending on application rate), and two replicates for soybean.
(§2) Standard warm conditions (tropical), in glasshouse. Specifically, the glasshouse bay conditions are 24° C./18° C. day/night; 16/8 hours light/dark; 65% humidity.
(§3) The herbicidal application takes place at the following growth stages for plants which include inter alia one or more of the following plants (usually the herbicidal application takes place on at least the following plants: DIGSA, ELEIN, SETFA, ZEAMX, GLXMA Nikko, and GLXMA TMG133, and often also either BRADC or BRAPP):
Eleusine indica (ELEIN)—growth stage 12 or 13
(§4) Each test compound is applied with one of the following adjuvant systems (all percentages are final concentrations in the aqueous spray mixture):
(§5) Adjuvant system 1: 0.5% v/v Adigor™ *, 1.0% v/v AMS (ammonium sulphate) and 12.5% v/v IPA (isopropyl alcohol).
(§6) Adjuvant system 1A: 0.5% v/v Adigor™ * and 12.5% v/v IPA (isopropyl alcohol).
CAS Registry no. […] A visual assessment of the % herbicidal damage is made 7 and 14 Days After herbicide Application (DAA) (or, in a minority of cases, 7 and 15 DAA), and the results are recorded as % visual herbicidal damage where 0%=no damage to plants and 100%=plant totally killed. *** Adjuvant system=either Adigor™ or Hexamoll DINCH™ or tris-(2-ethylhexyl) phosphate each at 0.5% v/v, and 12.5% v/v IPA (isopropyl alcohol), and 1.0% v/v AMS (ammonium sulphate); or 0.5% v/v Adigor™ and 12.5% v/v IPA (isopropyl alcohol); all percentages are final concentrations in the aqueous spray mixture. […]
The percentages of herbicidal damage/plant control, at 14 Days After herbicide Application (DAA) (or, in a minority of cases, at 15 DAA), for the Compounds tested and for some of the plants tested, were in the following percentage ranges. […] Phytotoxicity on Glycine max (GLXMA, Soybean) Cultivar “TMG133” Glycine max (GLXMA, soybean) cultivar “TMG133” is Roundup Ready™ glyphosate-tolerant soybean cultivar TMG133, and is typically available from Monsanto in Brazil.

Test [3] deals with Zea mays (ZEAMX, maize, corn) cultivar Garland. Described as above. The settings on record: 8 g/ha. How it is done: as §1, §2, §3
Zea mays (ZEAMX, maize/corn, e.g. can occur as volunteer corn) cultivar “Garland”—growth stage 12 or 13
as §4, §5, §6
CAS Registry no. 166412-78-8), and is usually available from BASF. “Isononyl” in this context is thought to mean a mixture of two or more branched isomers of C9H19. […] A visual assessment of the % herbicidal damage is made 7 and 14 Days After herbicide Application (DAA) (or, in a minority of cases, 7 and 15 DAA), and the results are recorded as % visual herbicidal damage where 0%=no damage to plants and 100%=plant totally killed. *** Adjuvant system=either Adigor™ or Hexamoll DINCH™ or tris-(2-ethylhexyl) phosphate each at 0.5% v/v, and 12.5% v/v IPA (isopropyl alcohol), and 1.0% v/v AMS (ammonium sulphate); or 0.5% v/v Adigor™ and 12.5% v/v IPA (isopropyl alcohol); all percentages are final concentrations in the aqueous spray mixture. […]

For test [4], the system named is Glycine max (GLXMA, soybean) cultivar TMG133. Described as above. The method, then:
as §1, §2, §3
Glycine max (GLXMA, soybean) cultivar “TMG133”—which is Roundup Ready™ glyphosate-tolerant soybean cultivar TMG133 (typically available from Monsanto in Brazil)—growth stage: 1st trifoliate.
as §4, §5, §6
CAS Registry no. 166412-78-8), and is usually available from BASF. “Isononyl” in this context is thought to mean a mixture of two or more branched isomers of C9H19. Method: Seeds of the weed (including volunteer) plants, typically including inter alia Digitaria sanguinalis (DIGSA), Eleusine indica (ELEIN), Setaria faberi (SETFA), Zea mays (ZEAMX, corn), and sometimes also [either Brachiaria decumbens (BRADC) or Brachiaria platyphylla (BRAPP)], are sown in seed trays (troughs) containing clay loam soil (pH 7.0, 2.2% organic matter, “Trough Mix A”); and soybean seed is sown in pots containing the same soil with 3 soybean seedlings per pot. The plants are sprayed with the test herbicide when they reach the growth stages mentioned above. The test herbicidal solutions are prepared by mixing the appropriate aliquots of the test substance(s) and one of the adjuvant systems indicated above *** in deionised water to give the desired treatment concentration. The herbicidal application is made as a foliar spray, using a tracksprayer. Following the herbicidal application, the plants are watered twice per day for the duration of the test. A visual assessment of the % herbicidal damage is made 7 and 14 Days After herbicide Application (DAA) (or, in a minority of cases, 7 and 15 DAA), and the results are recorded as % visual herbicidal damage where 0%=no damage to plants and 100%=plant totally killed. *** Adjuvant system=either Adigor™ or Hexamoll DINCH™ or tris-(2-ethylhexyl) phosphate each at 0.5% v/v, and 12.5% v/v IPA (isopropyl alcohol), and 1.0% v/v AMS (ammonium sulphate); or 0.5% v/v Adigor™ and 12.5% v/v IPA (isopropyl alcohol); all percentages are final concentrations in the aqueous spray mixture.
Compounds A8, A11 and A17, which are compounds of formula (I) according to the present invention, were tested in a test method substantially as described above.
Compound A8 was tested using the 0.5% v/v Adigor™+12.5% v/v IPA adjuvant system. Compounds A11 and A17 were tested using the 0.5% v/v Adigor™+1.0% v/v AMS+12.5% v/v IPA adjuvant system.
The percentages of herbicidal damage/plant control, at 14 Days After herbicide Application (DAA) (or, in a minority of cases, at 15 DAA), for the Compounds tested and for some of the plants tested, were in the following percentage ranges. […]

The mark [5] stands for this setting: 14 DAA, adjuvant 0.5% v/v Adigor + 12.5% v/v IPA.
Where [6] appears, read: 14 DAA (A11: 14 or 15 DAA), adjuvant 0.5% v/v Adigor + 1.0% v/v AMS + 12.5% v/v IPA.

Take `C#CCC1CC(=O)C(c2c(F)cc(C#CC)cc2OC)C1=O` (centres unmarked) [Compound A8, 2-(2-fluoro-6-methoxy-4-prop-1-ynyl-phenyl)-4-prop-2-ynyl-cyclopentane-1,3-dione]: in test [1], the pest or weed control at 30 g/ha amounted to 100% and the pest or weed control at 250 g/ha worked out at 100%. Besides, in test [2] (setting [5]), the “percentage control of (phytotoxicity on) Eleusine indica (ELEIN)” value is recorded as 40%. Besides, the “percentage control of (phytotoxicity on) Zea mays (ZEAMX, maize, corn)” value in test [3] (setting [5]) is listed as 65%. Also, in test [4] (120 g/ha, 14 DAA, adjuvant 0.5% v/v Adigor + 12.5% v/v IPA), the “percentage phytotoxicity on Glycine max (GLXMA, soybean) cultivar TMG133” value stood at 17.5%.
`CC#Cc1cc(F)c(C2C(=O)CC(CCSC)CC2=O)c(OC)c1` (centres unmarked) [Compound A11]: the pest or weed control at 30 g/ha in test [1] (30 g/ha, 13 days after application) stood at 0%. Also, the pest or weed control at 250 g/ha in test [1] (250 g/ha, 13 days after application) was 10%. Further, the “percentage control of Eleusine indica (ELEIN)” value in test [2] (setting [6]) is recorded as 0%. Moreover, the “percentage control of Zea mays (ZEAMX, maize, corn)” value in test [3] (setting [6]) worked out at 0%. The “percentage phytotoxicity on Glycine max (GLXMA, soybean) cultivar TMG133” value was 5% in test [4] (120 g/ha, 14 DAA (A11: 14 or 15 DAA), adjuvant 0.5% v/v Adigor + 1.0% v/v AMS + 12.5% v/v IPA) and 5% in test [4] (240 g/ha, 14 DAA (A11: 14 or 15 DAA), adjuvant 0.5% v/v Adigor + 1.0% v/v AMS + 12.5% v/v IPA).
